Assay results taken from patent US20220412957A1, “METHODS OF TREATING CANCER PATIENTS WITH RAS NODE OR RTK TARGETED THERAPEUTIC AGENTS” (Celcuity Inc., priority 2019, published 2022).

Test system: LPA1-initiated signaling in HER2-negative/PI3K//ERK/MEK/RAF/mTOR Wild-Type breast tumor cell samples
Assay: impedance biosensor cell adhesion test, LPA1 agonist with RAS node inhibitors (Example 4)
Format: cell-based, human
Set-up: unit not given here
Source text: Tissue and cell samples: 28 HER2-negative/PI3K//ERK/MEK/RAF/mTOR Wild-Type breast tumor cell samples were studied. […] From these responses, the net amount of LPA1-initiated signaling involving PI3K-α, Class 1 PI3K-isoforms (pan-PI3K), Class 1 PI3K-isoforms and mTOR, Bcl-xL and Bcl-2, MEK, ERK, and RAF, individually and in combination, was quantified.
In this example, 14 of the 28 patient cell samples tested recorded output values with at least one of the targeted therapeutic(s) above 250. […] Five patients would be selected to receive treatment with gedatolisib, four would be selected to receive treatment with copanlisib, one patient would be selected to receive treatment with PLX7904, six patients would be selected to receive treatment with gedatolisib and PLX7904, seven patients would be selected to receive treatment with gedatolisib and ravoxertinib, nine patients would be selected to receive treatment with gedatolisib and trametinib, and 14 patients would be selected to receive treatment with gedatolisib and navitoclax.

[1] = sample C1838.01.155, cut-off 250
[2] = sample C1986.01.10, cut-off 250
[3] = sample C2090.01.14, cut-off 250
[4] = sample C2169.01.10, cut-off 250
[5] = sample C3091.01.13, cut-off 250
[6] = sample C3132.01.13, cut-off 250
[7] = sample C3311.01.10, cut-off 250
[8] = sample CL021.01.869, cut-off 250

| SMILES | output value (sample C1816.01.6, cut-off 250) | output value [1] | output value (sample C1918.01.5, cut-off 250) | output value [2] | output value [3] | output value (sample C2167.01.4, cut-off 250) | output value [4] | output value (sample C2483.01.6, cut-off 250) | output value (sample C2693.01.2, cut-off 250) | output value (sample C2697.01.4, cut-off 250) | output value (sample C2729.01.4, cut-off 250) | output value (sample C2748.01.4, cut-off 250) | output value (sample C2792.01.2, cut-off 250) | output value (sample C2794.01.9, cut-off 250) | output value (sample C2868.01.6, cut-off 250) | output value (sample C2991.01.7, cut-off 250) | output value [5] | output value (sample C3101.01.6, cut-off 250) | output value [6] | output value [7] | further results |
| --- | --- | --- | --- | --- | --- | --- | --- | --- | --- | --- | --- | --- | --- | --- | --- | --- | --- | --- | --- | --- | --- |
| COc1c(OCCCN2CCOCC2)ccc2c1N=C(NC(=O)c1cnc(N)nc1)N1CCN=C21 [Copanlisib, copanlisib] | 374 | 10 | 113 | 170 | 103 | 67 | 199 | 113 | 46 | 103 | 72 | 55 | 98 | 14 | 58 | 310 | 156 | 70 | 38 | 430 | output value (sample C3337.01.6, cut-off 250): 240; output value (sample C3377.01.2, cut-off 250): 86; output value (sample C3507.01.5, cut-off 250): 94; output value (sample C3730.01.9, cut-off 250): 511; output value (sample C3873.01.4, cut-off 250): 199; output value (sample C3957.01.6, cut-off 250): 53; output value (sample C4005.01.2, cut-off 250): 125; output value [8]: −259 |
| C[C@H](Nc1ccc2c(c1)OCCn1cc(N3C(=O)OC[C@H]3C(F)F)nc1-2)C(N)=O [GDC-0077] | −22 | 38 | 38 | 62 | 36 | −12 | 34 | 113 | −24 | 31 | 34 | 65 | 43 | −89 | −24 | 55 | 60 | 0 | 0 | 14 | output value (sample C3337.01.6, cut-off 250): 139; output value (sample C3377.01.2, cut-off 250): −161; output value (sample C3507.01.5, cut-off 250): −58; output value (sample C3730.01.9, cut-off 250): −113; output value (sample C3873.01.4, cut-off 250): 122; output value (sample C3957.01.6, cut-off 250): −10; output value (sample C4005.01.2, cut-off 250): −12; output value [8]: −466 |
| CCN(C)S(=O)(=O)Nc1ccc(F)c(C(=O)c2c[nH]c3ncc(-c4cnc(C5CC5)nc4)cc23)c1F [PLX7904] | 158 | −91 | −5 | −19 | −38 | 22 | 14 | 67 | −10 | −2 | −2 | 14 | 5 | 36 | −12 | 53 | 50 | 262 | 22 | −17 | output value (sample C3337.01.6, cut-off 250): 58; output value (sample C3377.01.2, cut-off 250): −58; output value (sample C3507.01.5, cut-off 250): 46; output value (sample C3730.01.9, cut-off 250): −173; output value (sample C3873.01.4, cut-off 250): 89; output value (sample C3957.01.6, cut-off 250): −22; output value (sample C4005.01.2, cut-off 250): −22; output value [8]: 19 |
| CN(C)C1CCN(C(=O)c2ccc(NC(=O)Nc3ccc(-c4nc(N5CCOCC5)nc(N5CCOCC5)n4)cc3)cc2)CC1 [gedatolisib] | 84 | 50 | 206 | 101 | 137 | 132 | 242 | 130 | 86 | 103 | 103 | 72 | 137 | 38 | 79 | 396 | 204 | 149 | 65 | 216 | output value (sample C3337.01.6, cut-off 250): 336; output value (sample C3377.01.2, cut-off 250): 113; output value (sample C3507.01.5, cut-off 250): 70; output value (sample C3730.01.9, cut-off 250): 494; output value (sample C3873.01.4, cut-off 250): 298; output value (sample C3957.01.6, cut-off 250): 74; output value (sample C4005.01.2, cut-off 250): 216; output value [8]: 353 |
| Cn1nccc1Nc1nccc(-c2ccn([C@H](CO)c3ccc(Cl)c(F)c3)c(=O)c2)n1 [ravoxertinib] | 96 | 108 | 65 | 26 | 48 | 7 | 14 | 12 | −55 | 55 | 10 | 60 | 24 | −24 | −36 | 10 | 67 | −12 | −22 | −67 | output value (sample C3337.01.6, cut-off 250): 53; output value (sample C3377.01.2, cut-off 250): 0; output value (sample C3507.01.5, cut-off 250): −24; output value (sample C3730.01.9, cut-off 250): −300; output value (sample C3873.01.4, cut-off 250): 43; output value (sample C3957.01.6, cut-off 250): −5; output value (sample C4005.01.2, cut-off 250): 12; output value [8]: −226 |
| CC(=O)Nc1cccc(-n2c(=O)n(C3CC3)c(=O)c3c(Nc4ccc(I)cc4F)n(C)c(=O)c(C)c32)c1 [trametinib] | 29 | 31 | 65 | 161 | 19 | −7 | 67 | 132 | −60 | 72 | 26 | 79 | 48 | −14 | −43 | −70 | 50 | 101 | 10 | 94 | output value (sample C3337.01.6, cut-off 250): 113; output value (sample C3377.01.2, cut-off 250): 149; output value (sample C3507.01.5, cut-off 250): −29; output value (sample C3730.01.9, cut-off 250): −204; output value (sample C3873.01.4, cut-off 250): −72; output value (sample C3957.01.6, cut-off 250): 10; output value (sample C4005.01.2, cut-off 250): 36; output value [8]: −226 |
